In article PMC3672142, “A Binding-Site Barrier Affects Imaging Efficiency of High Affinity Amyloid-Reactive Peptide Radiotracers In Vivo” (PLoS ONE, 2013):
No end group written: not given here.

Assays:
[1] = test system: AA amyloid; parameters: species or system H2-Ld-huIL-6 Tg Balb/c transgenic mice; conditions: mouse, in vivo, iv
Protocol: AA amyloidosis was induced in H2-Ld-huIL-6 Tg Balb/c transgenic mice that constitutively express the human interleukin-6 transgene, [21] by iv administration of 10 µg of isolated amyloid enhancing factor (AEF – a suspension of AA amyloid fibril extract, [22]) in 100 µL of sterile phosphate-buffered saline (PBS). Mice used in these studies were 4–6 wk post induction. These studies were carried out in strict accordance with a protocol approved by the University of Tennessee Institutional Animal Care and Use Committee. All procedures were approved by the IACUC and were performed in accordance with the guidelines provided by OLAW and the Guide for the Care and Use of Laboratory Animals.
Mice, wild type or those with AA-amyloid, were injected iv in the lateral tail vein with ∼10 µg (∼150 µCi) of radioiodinated (^123I or ^125I) peptide p5, p5R, p5R(1–24) or p5R mixed with 1 mg of unlabeled p5R peptide. […]
Samples of muscle, liver, spleen, pancreas, kidneys, heart, stomach, small and large intestines and lung tissue were harvested post mortem from every mouse. Each sample was placed into a tared, plastic vial, weighed and the ^125I or ^123I radioactivity measured using an automated Wizard 3 gamma counter (1480 Wallac Gamma Counter, Perkin Elmer). The biodistribution data were expressed as % injected dose/g tissue (% ID/g). […]

[2] = test system: cardiac and pancreatic amyloid; conditions: SAP imaging; no reference printed at this sentence (refs [14], [15] for SAP imaging); cited from earlier work
Text: Currently, there are no FDA-approved agents available in the USA for quantitative whole body imaging of visceral amyloid in vivo. […] However, there is no evidence that either this or the recently FDA-approved Aβ tracer Amyvid™ will facilitate detection of amyloid deposits in other visceral organs. Numerous amyloid-binding radiotracers have been described, e.g ...

| Substance | radioactivity in liver, spleen, pancreas and intestines compared to WT mice [1] | detection of cardiac and pancreatic amyloid [2] |
| --- | --- | --- |
| GGGYSRAQRAQARQARQAQRAQRAQARQARQ [p5R] | significant radioactivity seen in the liver, spleen, pancreas, and intestines as compared to the WT mice | – |
| SAP: serum amyloid P component, used as 123I-SAP for planar scintigraphic imaging of amyloid | – | at best, poorly detected |
